Results on eleven compounds are retold here after ChEMBL document CHEMBL1201862, “PubChem BioAssay data set” (2004).

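How tested: cells in 96-well plates exposed to compound for 48 hours at five concentrations. Abbreviation: GI50, concentration required for 50% inhibition of growth.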 Calls of active or inactive are those of the source. No stated cut-off is given here; in the data, active = GI50 up to about 1.1 µM and inactive = higher.

Some test systems named below: HL-60; CAKI-1; EKVX; SK-MEL-28; A549; SW-620; HCC 2998; SF-268; OVCAR-3; SK-MEL-2; KM12; NCI-H522; MOLT-4; SNB-19; OVCAR-4; ACHN; SK-OV-3; UACC-62; OVCAR-8; SNB-75.
What all share (experiment): NCI-60 cell line screen, 48 h

`CCOC(=O)c1c(Cl)nc2ccccc2c1N=[N+]=[N-]`: the GI50 in the experiment on HL-60 is 67 µM (inactive); in the experiment on CAKI-1, 20.2 µM (inactive); in the experiment with EKVX, 22.4 µM (inactive); in the experiment with SK-MEL-28, 52.4 µM (inactive); in the experiment with A549 it was 66.8 µM (inactive); with SW-620 it was 19.5 µM (inactive). Also, the GI50 is 80.4 µM (inactive) with HCC 2998; 16.4 µM (inactive) in the experiment with SF-268; 19.5 µM (inactive) in the experiment with OVCAR-3; 19.2 µM (inactive) with SK-MEL-2; 16.2 µM (inactive) in the experiment with KM12; 16.7 µM (inactive) with NCI-H522. Besides, the GI50 in the experiment with MOLT-4 was 24.2 µM (inactive); in the experiment on SNB-19, > 100 µM (inactive); in the experiment with OVCAR-4 it was 16.9 µM (inactive); in the experiment on ACHN, 40.3 µM (inactive); in the experiment with SK-OV-3 it was 70.5 µM (inactive).

Regarding `Cc1cc(C)c2c(O)cc(-c3cccc4ccccc34)nc2n1`, the GI50 in the experiment with HL-60 was 0.26 µM (active); in the experiment on CAKI-1, 2.07 µM (inactive); with EKVX, 0.975 µM (active); in the experiment on SK-MEL-28, 10.8 µM (inactive); with A549, 0.867 µM (active); with SW-620 it was 0.448 µM (active). Further, the GI50 was 0.349 µM (active) with UACC-62; 1.14 µM (inactive) in the experiment with HCC 2998; 1.14 µM (inactive) with OVCAR-8; 2.58 µM (inactive) in the experiment with SF-268; 0.263 µM (active) in the experiment on OVCAR-3; 0.291 µM (active) in the experiment with SK-MEL-2. The GI50 is 0.406 µM (active) with KM12; 0.373 µM (active) in the experiment with NCI-H522; 0.317 µM (active) in the experiment on SNB-75; 0.863 µM (active) in the experiment with MOLT-4; 1.12 µM (inactive) in the experiment with SNB-19; 4.25 µM (inactive) with OVCAR-4. Besides, the GI50 in the experiment on ACHN is 0.594 µM (active); with SK-OV-3 it was 0.462 µM (active).

Turning to `C/C(C[n+]1ccccc1)=N\N=C(N)N`, the GI50 in the experiment with HL-60, in the experiment with CAKI-1, in the experiment on EKVX, in the experiment with SK-MEL-28, in the experiment with A549 and in the experiment on SW-620 was > 100 µM (inactive) each time. Besides, the GI50 in the experiment on UACC-62 is > 100 µM (inactive); in the experiment with HCC 2998 it was > 100 µM (inactive); in the experiment with OVCAR-8, > 100 µM (inactive); in the experiment with SF-268 it was > 100 µM (inactive); in the experiment with OVCAR-3 it was > 100 µM (inactive); in the experiment with SK-MEL-2, 73.8 µM (inactive). For the same compound, the GI50 in the experiment on KM12, with NCI-H522, in the experiment on SNB-75, in the experiment on MOLT-4, in the experiment with SNB-19 and with OVCAR-4 was > 100 µM (inactive) each time. The GI50 in the experiment with ACHN and with SK-OV-3 was > 100 µM (inactive) in each case.

Regarding `COc1cc(C(=O)CC2OC(=O)C(Cl)=C2Cl)ccc1Cl` (stereo not drawn), the GI50 in the experiment on HL-60, in the experiment on CAKI-1, in the experiment with EKVX, with SK-MEL-28, with A549 and in the experiment on SW-620 was > 100 µM (inactive) each time. In addition, the GI50 in the experiment with UACC-62, with HCC 2998, in the experiment with OVCAR-8, with SF-268, in the experiment with OVCAR-3 and in the experiment with SK-MEL-2 was > 100 µM (inactive) in each case. In addition, the GI50 with KM12, with NCI-H522, in the experiment on SNB-75, in the experiment on MOLT-4, in the experiment on SNB-19 and with OVCAR-4 was > 100 µM (inactive) each time. For the same compound, the GI50 in the experiment with ACHN and in the experiment with SK-OV-3 was > 100 µM (inactive) each time.

Turning to `c1ccc(COc2cccc3ccc[n+](Cc4ccccc4)c23)cc1`, the GI50 was 1.93 µM (inactive) with HL-60; 6.43 µM (inactive) in the experiment with EKVX; 3.85 µM (inactive) in the experiment with SK-MEL-28; 7.46 µM (inactive) in the experiment with A549; 9.75 µM (inactive) in the experiment with SW-620; 4.6 µM (inactive) in the experiment on UACC-62. Moreover, the GI50 is 13.1 µM (inactive) with HCC 2998; 4.06 µM (inactive) with SF-268; 5.21 µM (inactive) in the experiment on SK-MEL-2; 3.41 µM (inactive) in the experiment on KM12; 1.95 µM (inactive) with NCI-H522; 5.2 µM (inactive) in the experiment with SNB-75. Also, the GI50 was 5.35 µM (inactive) with MOLT-4; 3.52 µM (inactive) with SNB-19; 3.6 µM (inactive) in the experiment on OVCAR-4; 8.2 µM (inactive) with ACHN; 23.8 µM (inactive) in the experiment on SK-OV-3.

`N#CC1(C#N)C(c2ccccc2)NC23CCCCC2C1(C#N)C(=O)N3` (stereo not drawn): the GI50 in the experiment with CAKI-1, in the experiment with EKVX, in the experiment with SK-MEL-28, in the experiment on A549, in the experiment on SW-620 and in the experiment on UACC-62 was > 100 µM (inactive) in each case. Moreover, the GI50 with HCC 2998, with OVCAR-8, with SF-268, in the experiment on OVCAR-3, in the experiment on SK-MEL-2 and in the experiment on KM12 was > 100 µM (inactive) throughout. Also, the GI50 with NCI-H522, with SNB-75, in the experiment with MOLT-4, in the experiment with SNB-19, in the experiment on OVCAR-4 and in the experiment with ACHN was > 100 µM (inactive) in each case. The GI50 in the experiment with SK-OV-3 was > 100 µM (inactive).

With `Cc1c2ccncc2c(C)c2c1[nH]c1ccc(OCCN(C)C)cc12`, the GI50 in the experiment with HL-60 was 0.136 µM (active); with CAKI-1 it was 0.463 µM (active); in the experiment with EKVX, 0.526 µM (active); in the experiment with SK-MEL-28, 0.577 µM (active); in the experiment on A549, 0.198 µM (active); with SW-620, 0.0353 µM (active). Further, the GI50 in the experiment with UACC-62 was 0.729 µM (active); with HCC 2998, 0.22 µM (active); in the experiment on OVCAR-8 it was 0.112 µM (active); in the experiment with SF-268, 0.151 µM (active); with OVCAR-3, 0.333 µM (active); with SK-MEL-2, 0.658 µM (active). Besides, the GI50 with KM12 is 0.105 µM (active); with NCI-H522, 0.391 µM (active); with SNB-75, 0.47 µM (active); with MOLT-4, 0.0193 µM (active); in the experiment with SNB-19 it was 0.256 µM (active); with OVCAR-4 it was 0.135 µM (active). For the same compound, the GI50 with SK-OV-3 is 0.501 µM (active).

With `C1=CCN(c2ccccc2)CC1`, the GI50 with HL-60 is 11.9 µM (inactive); in the experiment on EKVX it was 97.1 µM (inactive); in the experiment on SK-MEL-28, 24.8 µM (inactive); in the experiment with A549, > 100 µM (inactive); with SW-620, 16.3 µM (inactive); in the experiment on UACC-62 it was 30.3 µM (inactive). In addition, the GI50 is 49.9 µM (inactive) in the experiment on HCC 2998; 27 µM (inactive) with OVCAR-8; 36.6 µM (inactive) in the experiment on SF-268; 25.4 µM (inactive) in the experiment on OVCAR-3; 39.1 µM (inactive) in the experiment with SK-MEL-2; 64.9 µM (inactive) in the experiment on KM12. In addition, the GI50 in the experiment with NCI-H522 was 16.3 µM (inactive); with SNB-75, 33.1 µM (inactive); in the experiment with MOLT-4, 5.69 µM (inactive); in the experiment on SNB-19, > 100 µM (inactive); in the experiment with ACHN it was 21.5 µM (inactive); in the experiment on SK-OV-3, > 100 µM (inactive).

As for `CC(=O)c1ccc(NC(=O)/C(CC(=O)/C=C/c2ccccc2)=N/NC(N)=S)cc1`, the GI50 with HL-60 is 80.7 µM (inactive); in the experiment with CAKI-1 it was > 100 µM (inactive); with EKVX it was 47.2 µM (inactive); in the experiment on SK-MEL-28, > 100 µM (inactive); in the experiment on A549, > 100 µM (inactive); with SW-620, > 100 µM (inactive). Also, the GI50 with UACC-62 is > 100 µM (inactive); in the experiment with HCC 2998, > 100 µM (inactive); in the experiment on OVCAR-8, 87.7 µM (inactive); with SF-268 it was > 100 µM (inactive); in the experiment with OVCAR-3, > 100 µM (inactive); in the experiment on SK-MEL-2, > 100 µM (inactive). Moreover, the GI50 in the experiment on KM12 was 44.4 µM (inactive); in the experiment on NCI-H522 it was 33.3 µM (inactive); in the experiment on SNB-75, > 100 µM (inactive); with MOLT-4, 46.5 µM (inactive); with OVCAR-4, 49.5 µM (inactive); with ACHN, 66.1 µM (inactive). Besides, the GI50 in the experiment with SK-OV-3 is > 100 µM (inactive).

For the compound `CN(N=O)c1nc2c(C(N)=O)ncn2s1`, the GI50 is 28.1 µM (inactive) in the experiment with CAKI-1; > 100 µM (inactive) in the experiment with EKVX; > 100 µM (inactive) in the experiment on SK-MEL-28; > 100 µM (inactive) with A549; 46.9 µM (inactive) in the experiment with SW-620; 32.7 µM (inactive) in the experiment on UACC-62. The GI50 in the experiment with HCC 2998 was 45.6 µM (inactive); with OVCAR-8, 30.5 µM (inactive); in the experiment with SF-268 it was 55.5 µM (inactive); with OVCAR-3 it was 87.1 µM (inactive); with SK-MEL-2 it was 35.8 µM (inactive); in the experiment on KM12 it was > 100 µM (inactive). For the same compound, the GI50 in the experiment with NCI-H522 was 76.4 µM (inactive); in the experiment with SNB-75 it was 49 µM (inactive); in the experiment with MOLT-4, > 100 µM (inactive); in the experiment on SNB-19, > 100 µM (inactive); in the experiment on OVCAR-4, 47.9 µM (inactive); in the experiment with ACHN, 57.3 µM (inactive). Further, in the experiment with SK-OV-3, the GI50 was 48.6 µM (inactive).

`CC(Cc1ccccc1)NC1=NCCO1` (stereo not drawn): the GI50 in the experiment on CAKI-1 is > 100 µM (inactive); in the experiment on EKVX, 54 µM (inactive); with A549, 38.8 µM (inactive); in the experiment with SW-620 it was 34.3 µM (inactive); with UACC-62 it was 52.4 µM (inactive); with HCC 2998, 27.6 µM (inactive). The GI50 in the experiment on OVCAR-8 is 48.1 µM (inactive); in the experiment on SK-MEL-2 it was 39.6 µM (inactive); with NCI-H522, 59.6 µM (inactive); with SNB-75, 43.3 µM (inactive); in the experiment on MOLT-4, 47 µM (inactive); in the experiment on SNB-19 it was 35.6 µM (inactive). For the same compound, the GI50 is 36.2 µM (inactive) in the experiment with OVCAR-4, 46 µM (inactive) in the experiment with ACHN and > 100 µM (inactive) in the experiment with SK-OV-3.
